Values of other authors in patent US10894017B1 (XSPRAY PHARMA AB, priority 2019, dated 2021).

Assays:
[1] = clinical bio-equivalence studies
[2] = high permeability and low solubility
[3] = within and between patients

CC(O)CO.Cc1nc(Nc2ncc(C(=O)Nc3c(C)cccc3Cl)s2)cc(N2CCN(CCO)CC2)n1 [1,2-propanediol solvate, dasatinib 1,2-propanediol solvate]
AUC compared to Sprycel [1]: higher AUC

Cc1nc(Nc2ncc(C(=O)Nc3c(C)cccc3Cl)s2)cc(N2CCN(CCO)CC2)n1 [Dasatinib monohydrate]
BCS classification [2]: BCS II

Cc1nc(Nc2ncc(C(=O)Nc3c(C)cccc3Cl)s2)cc(N2CCN(CCO)CC2)n1 [anhydrate form N-6]
AUC compared to Sprycel [1]: higher AUC

Cc1nc(Nc2ncc(C(=O)Nc3c(C)cccc3Cl)s2)cc(N2CCN(CCO)CC2)n1 [dasatinib]
coefficient of variation of AUC [3]: up to 100% | coefficient of variation of Cmax [3]: up to 100%
